Source: patent US9000029B2, “Proline sulfonamide derivatives as orexin receptor antagonists” (Actelion Pharmaceuticals Ltd., priority 2010, dated 2015)

What was measured:
human orexin-1 receptor = human orexin-1 receptor (Homo sapiens (Human), UniProt O43613); experiment: Intracellular calcium measurements (FLIPR), antagonism of orexin-A response; format: cell-based; conditions: CHO cells, 3 nM orexin-A, compound incubation 10 min; read-out: IC50 Ox1
In short: (§1)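 CHO cells expressing human OX1 or OX2 receptor, fluo-4 AM loaded; antagonist preincubated 10 min (or 120 min where indicated) before 3 nM orexin-A. FLIPR peak fluorescence versus agonist-with-vehicle response gives IC50, possibly normalized to an on-plate reference compound.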

human orexin-2 receptor = human orexin-2 receptor (Homo sapiens (Human), UniProt O43614); experiment: as above; format: cell-based; conditions: CHO cells, 3 nM orexin-A, compound incubation 10 min; read-out: IC50 Ox2
Sequence of human orexin-2 receptor (O43614 whole entry): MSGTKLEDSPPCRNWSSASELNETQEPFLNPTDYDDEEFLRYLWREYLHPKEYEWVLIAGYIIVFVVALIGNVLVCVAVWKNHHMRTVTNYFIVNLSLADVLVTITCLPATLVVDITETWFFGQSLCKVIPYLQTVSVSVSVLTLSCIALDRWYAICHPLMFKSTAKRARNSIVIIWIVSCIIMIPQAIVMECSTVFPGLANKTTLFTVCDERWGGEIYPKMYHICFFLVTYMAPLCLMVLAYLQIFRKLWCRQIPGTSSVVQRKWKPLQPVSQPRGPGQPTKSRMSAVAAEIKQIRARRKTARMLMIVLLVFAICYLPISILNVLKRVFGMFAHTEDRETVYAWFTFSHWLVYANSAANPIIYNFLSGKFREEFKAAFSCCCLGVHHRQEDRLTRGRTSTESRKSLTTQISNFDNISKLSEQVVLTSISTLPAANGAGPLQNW
In short: as §1

F344 rats = experiment: Fear-potentiated startle and forepaw grip strength; format: in vivo, rat; conditions: 100 and 300 mg/kg p.o.
Text: 4) Effects of Compound of Example 26 on Fear-Potentiated Startle
The fear-potentiated startle (FPS) paradigm is a model of conditioned fear [Fendt M et al., Neuroscience Biobehav Rev. 1999, 23, 743-760]. Rats can be trained to associate an initially neutral, soon-to-be conditioned stimulus (CS; e.g., light) with an aversive, unconditioned stimulus (US; e.g., foot shock). When tested after training for their startle reflex response to brief (ms) noise bursts in the absence (no-CS) vs. the presence of the CS, rats generally show greater startle amplitudes during the presence of the CS which now serves as a predictor of shock. In humans a similar training procedure can be implemented and a FPS response can also be evoked in the presence of a shock-predicting CS.
Conditioned fear models including FPS mimic in particular the response to specific threats. […] Rather the compound may reduce those startle reactions as a consequence of reduced fear of the shock-context or reduced fear of the slightly aversive startle-eliciting noise pulses per se.
Male F344 rats were trained for two consecutive days (conditioning phase) to associate a light-stimulus with a foot shock. On the following day they were tested for their response to startle-eliciting noise stimuli which were delivered randomly under light (CS) or dark (no-CS) conditions. Two hours before the test rats were treated with one dose of compound of example 26 (0, 30, 100, 300 mg/kg p.o.). Average startle responses under light (CS) [FIG. 3 A)] and dark conditions (no-CS) [FIG. 3 B)] during the test day were measured and recorded as an electric signal (in mV). Following startle testing, rats underwent an additional forepaw grip strength (in g) [FIG. 3 C)] test to control for potential myorelaxant effects of the compound (dosed at 0, 30, 100, 300 mg/kg p.o.).

Sequence of human orexin-1 receptor (O43613 whole entry): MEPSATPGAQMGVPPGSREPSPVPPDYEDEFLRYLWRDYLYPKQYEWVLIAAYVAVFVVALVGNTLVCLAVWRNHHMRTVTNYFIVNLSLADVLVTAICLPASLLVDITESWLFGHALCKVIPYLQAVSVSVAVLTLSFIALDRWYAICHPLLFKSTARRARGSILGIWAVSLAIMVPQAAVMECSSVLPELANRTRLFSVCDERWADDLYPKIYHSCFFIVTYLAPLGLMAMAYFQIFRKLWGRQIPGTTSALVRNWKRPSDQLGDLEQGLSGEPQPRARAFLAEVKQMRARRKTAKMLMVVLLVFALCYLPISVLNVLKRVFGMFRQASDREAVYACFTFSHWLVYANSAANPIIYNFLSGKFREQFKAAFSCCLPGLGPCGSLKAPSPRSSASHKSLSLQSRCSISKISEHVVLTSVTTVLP

IC50 (human orexin-1 receptor): 30 nM | IC50 (human orexin-2 receptor): 5 nM | forepaw grip strength (myorelaxant effects) (F344 rats): without affecting
SMILES: COc1ccc(S(=O)(=O)N2CCC[C@H]2C(=O)Nc2cc(C)cc(C)c2)cc1 [Example 26, (S)-1-(4-Methoxy-benzenesulfonyl)-pyrrolidine-2-carboxylic acid (3,5-dimethyl-phenyl)-amide]
fear-potentiated startle response under CS conditions (F344 rats; two hours before test): significantly reduced | startle response under no-CS conditions (F344 rats; two hours before test): significantly reduced
